Assays:
[1] = system: BBOX; details: read-out: KM of BBOX for 2OG; cited from earlier work
[2] = system: HEK 293T cells; test: Cytotoxicity in HEK 293T cells; format: cell-based, human; details: up to concentrations of 0.5 mM
[3] = system: histone demethylases (KDMs); test: Selectivity panel of human 2OG oxygenases: histone demethylases; format: biochemical; details: at 100 μM
[4] = system: carnitine biosynthesis in HEK 293T cells; test: LC-MS detection of carnitine levels in HEK 293T cells; format: cell-based, human; details: for Carnitine levels: control 100% (SEM ± 13%)
[5] = system: BBOX; details: read-out: IC50 BBOX in vitro; cited from earlier work
[6] = target: T1, BBOX (Homo sapiens, UniProt O75936); test: Binding assay by quenching of the intrinsic fluorescence of BBOX
T1 sequence (O75936 1-387): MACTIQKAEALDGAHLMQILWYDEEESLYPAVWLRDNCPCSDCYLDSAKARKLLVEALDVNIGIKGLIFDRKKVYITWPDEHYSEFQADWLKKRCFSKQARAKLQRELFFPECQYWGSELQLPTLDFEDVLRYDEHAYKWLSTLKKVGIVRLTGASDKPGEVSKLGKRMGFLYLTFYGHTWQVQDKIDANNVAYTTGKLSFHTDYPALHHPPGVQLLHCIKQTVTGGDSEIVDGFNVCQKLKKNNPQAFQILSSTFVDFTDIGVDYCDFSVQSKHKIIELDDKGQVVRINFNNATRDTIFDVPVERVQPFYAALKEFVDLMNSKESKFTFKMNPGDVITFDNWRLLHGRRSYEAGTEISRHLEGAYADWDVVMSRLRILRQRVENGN

SMILES: O=C(O)CCC(=O)C(=O)O [2OG, 2-oxoglutarate]
- Km [1]: 160 µM

SMILES: O=C(N[C@@H](CSCc1ccccn1)C(=O)O)c1ncccc1O [AR692B]
- Cytotoxicity [2]: not cytotoxic
- Activity against the tested KDMs [3]: inactive
- Reduction in carnitine levels ([4]; HEK 293T cells, 100 μM): > 40%
- Carnitine levels ([4]; HEK 293T cells, 100 μM compound): 57 ± 9 percentage of free carnitine l

SMILES: C[N+](C)(C)CCCC(=O)[O-] [GBB, γ-butyrobetaine]
- Reduction of carnitine levels ([4]; cells, 20 μM): ~ 50%

SMILES: C[N+](C)(C)NCCC(=O)[O-] [Mildronate]
- IC50 [5]: 60 µM
- Carnitine levels ([4]; HEK 293T cells, 20 μM compound): 70 ± 6 percentage of free carnitine l
- Reduction of carnitine levels ([4]; HEK 293T cells, 50 μM): 63%
- Carnitine levels ([4]; HEK 293T cells, 50 μM compound): 37 ±10 percentage of free carnitine l
- Activity on carnitine levels ([4]; HEK 293T cells, below 5 μM): not active
- Reduction of carnitine levels ([4]; cells, 20 μM): 30%

SMILES: O=C(O)CNC(=O)c1ncccc1O [compound 1, (3-hydroxypicolinoyl)glycine]
- Kd [6]: 10.8 µM

Reference: publication PMC4678601 (Chemical science (Royal Society of Chemistry : 2010), 2014)
